Measured values from publication PMC6413085, “A Validated HPLC-MS/MS Assay for 14-O-[(4,6-Diaminopyrimidine-2-yl)thioacetyl] Mutilin in Biological Samples and Its Pharmacokinetic, Distribution and Excretion via Urine and Feces in Rats” (Molecules, 2019).

Tests used:
[1] = Excretion via urine and feces study in rats; assay type: in vivo, Sprague-Dawley rats; conditions: rat, 75 mg/kg
Method: Excretion via urine and feces was studied in another six rats (half male and half female). After the rats were administered via a single i.v., i.m. and p.o. dose (75 mg/kg) of DPTM, urine and feces samples were collected at 0–4, 4–8, 8–12, 12–24, 24–36, 36–48, 48–72, 72–96, 96–144, 144–192 and 192–240 h intervals in plastic centrifuge tubes and stored at −70 °C until analysis. For quantitative analysis, the fecal samples were dried at 45 °C for 24 h and prepared by the established sample treatment procedure. The urinary samples were prepared by the established sample treatment procedure directly. The obtained samples were injected into the HPLC-MS/MS system for analysis.

[2] = Stability of DPTM in plasma, tissue homogenates, urine and feces (QC samples); assay type: physicochemical, rat
Method: Stability of DPTM and IS was examined by comparing the analytes’ concentrations in freshly prepared samples with those of samples maintained under different conditions, including the 24 h storage at room temperature, three freeze and thaw cycles, and storage at −70 °C for 4 weeks, respectively. Analyzing three levels of QC samples were used to assess the stability (accuracy and precision) with six replicates.
For the construction of calibration curves, 20 μL of each corresponding standard working solution (0.05, 0.2, 0.5, 1, 2, 5, 10, 20 and 40 μg/mL) was evaporated to dryness by nitrogen at 40 °C. The calibration standards (5, 20, 50, 100, 200, 500, 1000, 2000 and 4000 ng/mL) were prepared by adding 200 μL of blank plasma, various tissue homogenates (including heart, liver, spleen, lung, kidney, large intestine, small intestine, ileum, cecum, bladder, brain, jejunum and colon) or urine and feces to the residue, respectively. Quality control (QC) samples (10, 200 and 3000 ng/mL) were obtained by the same way as the calibration standards. All solutions were stored at −70 °C before use for no longer than 4 weeks.

DPTM in urine (192 h) and feces (240 h) at the last acquisition time point ([1]; LLOQ 5 ng/mL): lower than that of the LLOQ
prototype drug excreted in urine at 192 h ([1]; i.m.): 1.39%
prototype drug excreted in urine at 192 h ([1]; i.v.): 1.63%
prototype drug excreted in urine at 192 h ([1]; p.o.): 1.20%
Stability RE ([2]; Bladder, 10 ng/mL, Freeze-thaw Cycles): 3.9%
Stability RE ([2]; Bladder, 10 ng/mL, Long-term (−70 °C, 4 Weeks)): 3.6%
Stability RE ([2]; Bladder, 10 ng/mL, Short-term (25 °C, 24 h)): 4.1%
Stability RE ([2]; Bladder, 200 ng/mL, Freeze-thaw Cycles): 5.1%
Stability RE ([2]; Bladder, 200 ng/mL, Long-term (−70 °C, 4 Weeks)): 5.1%
Stability RE ([2]; Bladder, 200 ng/mL, Short-term (25 °C, 24 h)): 1.9%
Stability RE ([2]; Bladder, 3000 ng/mL, Freeze-thaw Cycles): 3.5%
Stability RE ([2]; Bladder, 3000 ng/mL, Long-term (−70 °C, 4 Weeks)): 3.3%
Stability RE ([2]; Bladder, 3000 ng/mL, Short-term (25 °C, 24 h)): 3.1%
Stability RE ([2]; Brain, 10 ng/mL, Freeze-thaw Cycles): 4.9%
Stability RE ([2]; Brain, 10 ng/mL, Long-term (−70 °C, 4 Weeks)): 5.3%
Stability RE ([2]; Brain, 10 ng/mL, Short-term (25 °C, 24 h)): 1.1%
Stability RE ([2]; Brain, 200 ng/mL, Freeze-thaw Cycles): 6.5%
Stability RE ([2]; Brain, 200 ng/mL, Long-term (−70 °C, 4 Weeks)): 6.6%
Stability RE ([2]; Brain, 200 ng/mL, Short-term (25 °C, 24 h)): 3.3%
Stability RE ([2]; Brain, 3000 ng/mL, Freeze-thaw Cycles): 4.1%
Stability RE ([2]; Brain, 3000 ng/mL, Long-term (−70 °C, 4 Weeks)): 4.1%
Stability RE ([2]; Brain, 3000 ng/mL, Short-term (25 °C, 24 h)): 8.1%
Stability RE ([2]; Cecum, 10 ng/mL, Freeze-thaw Cycles): 7.2%
Stability RE ([2]; Cecum, 10 ng/mL, Long-term (−70 °C, 4 Weeks)): 6.4%
Stability RE ([2]; Cecum, 10 ng/mL, Short-term (25 °C, 24 h)): 6.7%
Stability RE ([2]; Cecum, 200 ng/mL, Freeze-thaw Cycles): 3.9%
Stability RE ([2]; Cecum, 200 ng/mL, Long-term (−70 °C, 4 Weeks)): 3.2%
Stability RE ([2]; Cecum, 200 ng/mL, Short-term (25 °C, 24 h)): 3.1%
Stability RE ([2]; Cecum, 3000 ng/mL, Freeze-thaw Cycles): −4.9%
Stability RE ([2]; Cecum, 3000 ng/mL, Long-term (−70 °C, 4 Weeks)): −6.4%
Stability RE ([2]; Cecum, 3000 ng/mL, Short-term (25 °C, 24 h)): −5.1%
Stability RE ([2]; Colon, 10 ng/mL, Short-term (25 °C, 24 h)): 5.4%
Stability RE ([2]; Ileum, 10 ng/mL, Freeze-thaw Cycles): −3.5%
Stability RE ([2]; Ileum, 10 ng/mL, Long-term (−70 °C, 4 Weeks)): 3.2%
Stability RE ([2]; Ileum, 10 ng/mL, Short-term (25 °C, 24 h)): 2.9%
Stability RE ([2]; Ileum, 200 ng/mL, Freeze-thaw Cycles): 5.2%
Stability RE ([2]; Ileum, 200 ng/mL, Long-term (−70 °C, 4 Weeks)): −5.1%
Stability RE ([2]; Ileum, 200 ng/mL, Short-term (25 °C, 24 h)): 1.7%
Stability RE ([2]; Ileum, 3000 ng/mL, Freeze-thaw Cycles): 3.3%
Stability RE ([2]; Ileum, 3000 ng/mL, Long-term (−70 °C, 4 Weeks)): 3.5%
Stability RE ([2]; Ileum, 3000 ng/mL, Short-term (25 °C, 24 h)): 3.1%
Stability RE ([2]; Jejunum, 10 ng/mL, Freeze-thaw Cycles): 6.1%
Stability RE ([2]; Jejunum, 10 ng/mL, Long-term (−70 °C, 4 Weeks)): 5.6%
Stability RE ([2]; Jejunum, 10 ng/mL, Short-term (25 °C, 24 h)): 7.2%
Stability RE ([2]; Jejunum, 200 ng/mL, Freeze-thaw Cycles): 7.3%
Stability RE ([2]; Jejunum, 200 ng/mL, Long-term (−70 °C, 4 Weeks)): 7.3%
Stability RE ([2]; Jejunum, 200 ng/mL, Short-term (25 °C, 24 h)): 7.5%
Stability RE ([2]; Jejunum, 3000 ng/mL, Freeze-thaw Cycles): −5.4%
Stability RE ([2]; Jejunum, 3000 ng/mL, Long-term (−70 °C, 4 Weeks)): −5.6%
Stability RE ([2]; Jejunum, 3000 ng/mL, Short-term (25 °C, 24 h)): −5.3%
Stability RE ([2]; Kidney, 10 ng/mL, Freeze-thaw Cycles): 3.7%
Stability RE ([2]; Kidney, 10 ng/mL, Long-term (−70 °C, 4 Weeks)): 3.5%
Stability RE ([2]; Kidney, 10 ng/mL, Short-term (25 °C, 24 h)): 3.4%
Stability RE ([2]; Kidney, 200 ng/mL, Freeze-thaw Cycles): 2.3%
Stability RE ([2]; Kidney, 200 ng/mL, Long-term (−70 °C, 4 Weeks)): 1.9%
Stability RE ([2]; Kidney, 200 ng/mL, Short-term (25 °C, 24 h)): 0.9%
Stability RE ([2]; Kidney, 3000 ng/mL, Freeze-thaw Cycles): 10.1%
Stability RE ([2]; Kidney, 3000 ng/mL, Long-term (−70 °C, 4 Weeks)): 9.9%
Stability RE ([2]; Kidney, 3000 ng/mL, Short-term (25 °C, 24 h)): 3.2%
Stability RE ([2]; Large intestine, 10 ng/mL, Freeze-thaw Cycles): 6.3%
Stability RE ([2]; Large intestine, 10 ng/mL, Long-term (−70 °C, 4 Weeks)): 6.9%
Stability RE ([2]; Large intestine, 10 ng/mL, Short-term (25 °C, 24 h)): 1.9%
Stability RE ([2]; Large intestine, 200 ng/mL, Freeze-thaw Cycles): 2.4%
Stability RE ([2]; Large intestine, 200 ng/mL, Long-term (−70 °C, 4 Weeks)): 2.2%
Stability RE ([2]; Large intestine, 200 ng/mL, Short-term (25 °C, 24 h)): 5.7%
Stability RE ([2]; Large intestine, 3000 ng/mL, Freeze-thaw Cycles): 3.1%
Stability RE ([2]; Large intestine, 3000 ng/mL, Long-term (−70 °C, 4 Weeks)): 3.5%
Stability RE ([2]; Large intestine, 3000 ng/mL, Short-term (25 °C, 24 h)): −0.9%
Stability RE ([2]; Liver, 10 ng/mL, Freeze-thaw Cycles): 3.3%
Stability RE ([2]; Liver, 10 ng/mL, Long-term (−70 °C, 4 Weeks)): 3.4%
Stability RE ([2]; Liver, 10 ng/mL, Short-term (25 °C, 24 h)): 2.9%
Stability RE ([2]; Liver, 200 ng/mL, Freeze-thaw Cycles): 3.4%
Stability RE ([2]; Liver, 200 ng/mL, Long-term (−70 °C, 4 Weeks)): 3.6%
Stability RE ([2]; Liver, 200 ng/mL, Short-term (25 °C, 24 h)): 3.3%
Stability RE ([2]; Liver, 3000 ng/mL, Freeze-thaw Cycles): 1.9%
Stability RE ([2]; Liver, 3000 ng/mL, Long-term (−70 °C, 4 Weeks)): 2.1%
Stability RE ([2]; Liver, 3000 ng/mL, Short-term (25 °C, 24 h)): 6.1%
Stability RE ([2]; Lung, 10 ng/mL, Freeze-thaw Cycles): 2.5%
Stability RE ([2]; Lung, 10 ng/mL, Long-term (−70 °C, 4 Weeks)): 2.9%
Stability RE ([2]; Lung, 10 ng/mL, Short-term (25 °C, 24 h)): 3.3%
Stability RE ([2]; Lung, 200 ng/mL, Freeze-thaw Cycles): 3.1%
Stability RE ([2]; Lung, 200 ng/mL, Long-term (−70 °C, 4 Weeks)): 3.5%
Stability RE ([2]; Lung, 200 ng/mL, Short-term (25 °C, 24 h)): 2.1%
Stability RE ([2]; Lung, 3000 ng/mL, Freeze-thaw Cycles): 7.6%
Stability RE ([2]; Lung, 3000 ng/mL, Long-term (−70 °C, 4 Weeks)): 7.5%
Stability RE ([2]; Lung, 3000 ng/mL, Short-term (25 °C, 24 h)): 1.3%
Stability RE ([2]; Small intestine, 10 ng/mL, Freeze-thaw Cycles): 4.9%
Stability RE ([2]; Small intestine, 10 ng/mL, Long-term (−70 °C, 4 Weeks)): 4.6%
Stability RE ([2]; Small intestine, 10 ng/mL, Short-term (25 °C, 24 h)): 1.3%
Stability RE ([2]; Small intestine, 200 ng/mL, Freeze-thaw Cycles): 3.2%
Stability RE ([2]; Small intestine, 200 ng/mL, Long-term (−70 °C, 4 Weeks)): 3.6%
Stability RE ([2]; Small intestine, 200 ng/mL, Short-term (25 °C, 24 h)): 3.7%
Stability RE ([2]; Small intestine, 3000 ng/mL, Freeze-thaw Cycles): 3.9%
Stability RE ([2]; Small intestine, 3000 ng/mL, Long-term (−70 °C, 4 Weeks)): 3.8%
Stability RE ([2]; Small intestine, 3000 ng/mL, Short-term (25 °C, 24 h)): 5.3%
Stability RE ([2]; Spleen, 10 ng/mL, Freeze-thaw Cycles): 3.6%
Stability RE ([2]; Spleen, 10 ng/mL, Long-term (−70 °C, 4 Weeks)): 3.3%
Stability RE ([2]; Spleen, 10 ng/mL, Short-term (25 °C, 24 h)): 3.7%
Stability RE ([2]; Spleen, 200 ng/mL, Freeze-thaw Cycles): 7.9%
Stability RE ([2]; Spleen, 200 ng/mL, Long-term (−70 °C, 4 Weeks)): 7.1%
Stability RE ([2]; Spleen, 200 ng/mL, Short-term (25 °C, 24 h)): 7.2%
Stability RE ([2]; Spleen, 3000 ng/mL, Freeze-thaw Cycles): 5.6%
Stability RE ([2]; Spleen, 3000 ng/mL, Long-term (−70 °C, 4 Weeks)): 5.7%
Stability RE ([2]; Spleen, 3000 ng/mL, Short-term (25 °C, 24 h)): 5.9%
results of stability experiments (% RE and % RSD) ([2]; plasma, tissue homogenates, urine and feces, 24 h at room temperature, three freeze and thaw cycles, −70 °C for 4 weeks): ≤ 15%
Compound: C=CC1(C)CC(OC(=O)CSc2nc(N)cc(N)n2)C2(C)C(C)CCC3(CCC(=O)C32)C(C)C1O (stereo not drawn) [DPTM, 14-O-[(4,6-Diaminopyrimidine-2-yl)thioacetyl] mutilin]
